Source: patent US12644142B2, “Sugar composition containing cyclic tetrasaccharide, use thereof, and production method therefor” (NAGASE VIITA CO., LTD., priority 2019, dated 2026)

Columns and labels:
[1] = purity of 98% by mass, aqueous solution with a solid concentration of 50% by mass; cited from earlier work
[2] = Preliminary evaluation of digestion and absorption after oral ingestion; assay type: in vivo; conditions: orally ingested into a human body

In the case of `OC[C@H]1O[C@@H]2OC[C@H]3O[C@H](O[C@@H]4[C@@H](O)[C@@H](OC[C@H]5O[C@H](O[C@H]([C@H]2O)[C@@H]1O)[C@H](O)[C@@H](O)[C@@H]5O)O[C@H](CO)[C@H]4O)[C@H](O)[C@@H](O)[C@@H]3O` [cyclic tetrasaccharide, cyclo{→6)-α-D-glucopyranosyl-(1→3)-α-D-glucopyranosyl-(1→6)-α-D-glucopyranosyl-(1→3)-α-D-glucopyranosyl-(1→}], the precipitation of crystals [1] is listed as “easily causes precipitation of crystals” and the “digestion and absorption after oral ingestion” value [2] is listed as “reaches the large intestine without being digested or absorbed”.
